The values that follow come from patent publication US9085559B2, “Triazine-aryl-bis-indoles and process for preparation thereof” (COUNCIL OF SCIENTIFIC & INDUSTRIAL RESEARCH, priority 2010, dated 2015).

The subject of one data set is PDE-4. The experiment in a line: Phosphodiesterase 4 assay ([3H]cAMP SPA), enzyme preparation from rat heart. As to conditions: PDE-4 activity, dose 10 μg/ml. It is filed as biochemical. On the procedure:
FIG. 2. […] To examine whether IICT-TA67 inhibits PDE-4 activity in vitro, enzyme preparations were incubated in the absence or presence of different concentrations (1-20 μg/ml) of IICT-TA67 and breakdown of cAMP was monitored by β counter.
Table 1. Measurement of phosphodiesterase (PDE)-4 activity by compounds.
Heart was excised from anesthetized rat and transfer into normal saline solution. […] The homogenate was centrifuged at 500×g for 5 minute at 4° C. Then sup was taken for further centrifuged at 40,000×g for 30 minute (ultra centrifugation). After centrifugation supernatant was collected for phosphodiesterase assay. Protein concentration was estimated and for each assay, 2.5 μg protein (PDE enzyme preparation) was used.
Phosphodiesterase 4 assay: Phosphodiesterase 4 assay was conducted with [^3H] cAMP SPA enzyme assay (GE Amersham, UK) using 2.5 μg enzyme preparation for each well. Into each well 60 μl water, 10 μl assay buffer supplied with the kit, 10 μl compound (inhibitor), 10 μl PDE enzyme or homogenizing buffer (blank) and 10 μl radiolabel led cAMP ([^3H]cAMP, GE Amersham, UK) were added. To check activity of the enzyme without inhibitor 10 μl DMSO was added in place of inhibitor to a separate well. The reaction mixtures were incubated for 30 mi at 30° C. The reaction was stopped by adding 50 μl SPA bead supplied with the kit. It was then mixed well and allowed to stand at room temperature for 20 min. Breakdown of cAMP in each tube was monitored by β counter. The reading in each tube was obtained in counts per minute (CPM). The reading of the blank tube (without enzyme) was subtracted from each tube to normalize the counts. The enzyme activity was calculated by considering the CPM reading without any inhibitor (compound) as 100.

Another data set concerns BALB/c 3T3 cell line. The experiment in a line: Balb/c 3T3 Neutral Red Uptake (NRU) cytotoxicity assay. The note with it: NRU cytotoxicity test (FIG. 8). It is filed as cell-based. An excerpt:
FIG. 8. IICT-TA67 is not toxic. To evaluate the cytotoxicity of test chemical (IICT-TA67) BALB/c 3T3 cell line was used for Neutral Red Uptake (NRU) cytotoxicity test. The test result has been used to determine IC50 for IICT-TA67 and acute oral toxicity (LD50) in rodent was predicted.
Basal cytotoxicity of IICT-TA67 has been performed to measure IC50 and thereafter predict in vivo acute oral LD50 values in rodent by using Halle's Registry of cytotoxicity (RC) prediction model: log (LD50)=0.435×log (IC50)+0.625 (Halle, 1998; Spielmann et al., 1999). Balb/c 3T3 Neutral Red Dye Uptake (NRU) cytotoxicity assay procedure was adopted (Liebsch & Spielmann 1995). In brief 3T3 cell were grown in 96 well microtitre plates and exposed to IICT-TA-67. After 48-hour incubation, the test material was removed and Neutral red (NR) solution was applied to the cells. The cells were incubated again, the excess NR solution was removed and finally NR was eluted from the cells. The NRU was determined by using a microtitre plate reader to measure the optical density at 540 nm of the eluted dye in 96 well plate. A calculation of cell viability expressed as NRU was made for each concentration of the test chemical by using the mean NRU of 6 replicate values per test concentration. The cell viability value was compared with the mean NRU of all vehicle control values and relative cell viability was then expressed as percent of untreated vehicle control. […] Although the percentage of viability is slightly more than 95% at 50 μg/ml of IICT-67, 30 μg/ml (% viability of cells is 98%)

A short description of data set [1]: Pharmacokinetic study, oral and i.v. route. It is filed as in vivo, swiss mice. The note with it: mouse, in vivo. On the procedure:
FIG. 6. Pharmacokinetics of IICT-TA67 through oral route. FIG. 7. Pharmacokinetics of IICT-TA67 through intravenous (i.v) route in mice. IICT-TA67 (20 mg/kg) was administered orally (or 10 mg/kg by i.v. route) as a fine suspension in 1% Gum acacia. Blood samples were drawn from retro-orbital plexus at designated times in pre-labeled heparinised tubes and centrifuged (3500 rpm×10 minutes) to obtain the plasma. Blood samples were collected at 0, 5, 15 and 30 min, and 1, 2, 4, 6, 8, 16 and 24 hrs post-administration after oral/iv route. HPLC determinations were done on Shimadzu chromatograph (Model: LC-10 Atvp equipped with a diode array detector). The Molecule ICT-TA67 was determined at 276 nm using RP-18 column (5 μm×25 cm). Mobile phase consisted of acetonitrile: water (55:45) with a flow rate of 1.0 ml/min.
Animals. Healthy swiss mice of both the sexes (25-30) were used. The animals were kept (3/cage) under controlled conditions (temp 26±2° C.; relative humidity 50±5%; 12 h light/dark cycle) and maintained on pelleted rodent diet (Ashirwad Industries Ltd. Chandigarh, India). Water was provided ad libitum. Institutional Animal Ethics committee approved the animal experiments. Animals were fasted for 16 hours before use.
Step 1: Dosing: IICT-TA67 (20 mg/kg) was administered orally (or 10 mg/kg by i.v.route) as a fine suspension in 1% Gum acacia. Blood samples were drawn from retro-orbital plexus at designated times in pre-labeled heparinised tubes and centrifuged (3500 rpm×10 minutes) to obtain the plasma. Blood samples were collected at 0, 5, 15 and 30 min, and 1, 2, 4, 6, 8, 16 and 24 hrs post-administration after oral/iv route.
Step 2: HPLC determinations: Aliquots of plasma were mixed with acetonitrile (1:2), vortexed for two minutes (2500 rpm) and centrifuge at 5000 rpm for 10 min. The organic layer was collected and evaporated to dryness using solvent evaporator (Model: SPD 111V, Thermo Electron Corporation, MA). The dried samples were reconstituted in mobile phase for HPLC analysis. In a similar manner samples were also prepared from aliquots of plasma collected from untreated animals which were spiked with molecule 67 (0.25 μg-10 μg/ml). […] Reproducibility of the method was defined by both intra-, and inter-day variance. The retention time of Mol. 67 was 10.688 min, at which no other interfering peak was observed. The lower limit of detection (LOD) was 11 ng/ml; limit of quantitation (LOQ) was 32 ng/ml; recovery was 90±2%.
HPLC determinations were done on Shimadzu chromatograph (Model: LC-10 Atvp equipped with a diode array detector). Molecule 67 was determined at 276 nm using RP-18 column (5 μm×25 cm). Mobile phase consisted of acetonitrile: water (55:45) with a flow rate of 1.0 ml/min.
Step 3: Calculating Bioavailability indices: A concentration-time curve for Molecule 67 was established and pharmacokinetic parameters AUC, Cmax, and tmax were determined by a non-compartmental analysis using TOPFIT software package. Absolute bioavailability was determined using the following formula: AUCoral×doseiv/AUCiv×Doseoral.

`COc1cc(C=O)ccc1Oc1nc(Nc2ccccc2)nc(Nc2ccccc2)n1` [Compound 13, 4-[4,6-Bis-anilino-1,3,5-triazin-2-yl-oxy]-3-methoxy benzaldehyde] showed an Inhibition % with PDE-4 of 30%.

The molecule `COc1cc(C(c2[nH]c3ccccc3c2CC(=O)O)c2[nH]c3ccccc3c2CC(=O)O)ccc1Oc1nc(Nc2ccccc2)nc(Nc2ccccc2)n1` [Compound 4, 2,2′-[2,2′-4-(4,6-bis-anilino)-1,3,5-triazin-2-yl-oxy-3-methoxyphenyl]-methylene-bis-(1H-indole-3,3-diyl)-diacetic acid] returned an Inhibition % with PDE-4 of 31%.

With `COc1ccc(C(c2cc3ccccc3[nH]2)c2cc3ccccc3[nH]2)cc1Oc1nc(NC2CC2)nc(NC2CC2)n1` [Compound 5, 2,2′-[2,2′-3-(4,6-bis-cyclopropylamino)-1,3,5-triazin-2-yl-oxy-4-methoxyphenyl]-methylene-bis-1H-indole], the Inhibition % in the data set with PDE-4 was found to be 34%.

`Clc1nc(NC2CC2)nc(NC2CC2)n1` [Compound 10, 6-Chloro-N^2,N^4-dicyclopropyl-1,3,5-triazine-2,4-diamine] displayed an Inhibition % in the data set on PDE-4 of 44%.

Turning to `COc1ccc(C(c2[nH]c3ccccc3c2CC(=O)O)c2[nH]c3ccccc3c2CC(=O)O)cc1Oc1nc(Nc2ccccc2)nc(Nc2ccccc2)n1` [Compound 8, 2,2′-[2,2′-3-(4,6-bis-anilino)-1,3,5-triazin-2-yl-oxy-4-methoxyphenyl]-methylene-bis-(1H-indole-3,3-diyl)-diacetic acid], the “toxicity” value with BALB/c 3T3 cell line is given as “potentially non toxic”. In data set [1], the “bioavailability and pharmacokinetics” value is listed as “potentially bioavailable with good pharmacokinetics”. In addition, in the data set with PDE-4, the Inhibition % stood at 73%.

As to `COc1cc(C(c2[nH]c3ccccc3c2CC(=O)O)c2[nH]c3ccccc3c2CC(=O)O)ccc1Oc1nc(NC2CC2)nc(NC2CC2)n1` [Compound 3, 2,2′-[2,2′-4-(4,6-bis-cyclopropylamino)-1,3,5-triazin-2-yl-oxy-3-methoxyphenyl]-methylene-bis-(1H-indole-3,3-diyl)-diacetic acid], in the data set with PDE-4, the Inhibition % came out at 42%.

For the molecule `COc1cc(C(c2cc3ccccc3[nH]2)c2cc3ccccc3[nH]2)ccc1Oc1nc(Nc2ccccc2)nc(Nc2ccccc2)n1` [Compound 2, 2,2′-[2,2′-4-(4,6-bis-anilino)-1,3,5-triazin-2-yl-oxy-3-methoxyphenyl]-methylene-bis-1H-indole], the Inhibition % with PDE-4 was 34%.

With `COc1ccc(C2CNC(=O)C2)cc1OC1CCCC1` (centres unmarked) [Rolipram, reference compound], in the data set on PDE-4, the Inhibition % worked out at 69%.

In turn, `COc1cc(C=O)ccc1Oc1nc(NC2CC2)nc(NC2CC2)n1` [Compound 12, 4-[4,6-Bis-cyclopropylamino-1,3,5-triazin-2-yl-oxy]-3-methoxy benzaldehyde] showed an Inhibition % in the data set with PDE-4 of 29%.

Consider `COc1ccc(C(c2cc3ccccc3[nH]2)c2cc3ccccc3[nH]2)cc1Oc1nc(Nc2ccccc2)nc(Nc2ccccc2)n1` [Compound 6, 2,2′-[2,2′-3-(4,6-bis-anilino)-1,3,5-triazin-2-yl-oxy-4-methoxyphenyl]-methylene-bis-1H-indole], for which, in the data set on PDE-4, the Inhibition % is recorded as 45%.

In the case of `Clc1nc(Nc2ccccc2)nc(Nc2ccccc2)n1` [Compound 11, 6-Chloro-N^2,N^4-diphenyl-1,3,5-triazine-2,4-diamine], the Inhibition % with PDE-4 was determined as 53%.

`COc1cc(C(c2cc3ccccc3[nH]2)c2cc3ccccc3[nH]2)ccc1Oc1nc(NC2CC2)nc(NC2CC2)n1` [Compound 1, 2,2′-[2,2′-4-(4,6-bis-cyclopropylamino)-1,3,5-triazin-2-yl-oxy-3-methoxyphenyl]-methylene-bis-1H-indole] showed an Inhibition % in the data set with PDE-4 of 16%.
